Laboratory results as given in patent publication US11905274B2, “Receptor inhibitors, pharmaceutical compositions comprising the same and use thereof” (BEIJING TIDE PHARMACEUTICAL CO., LTD., priority 2018, dated 2024).

biological target: AT2 Receptor (AT2R) (Homo sapiens (Human), UniProt P50052); assay: Inhibitory activity on AT2 receptor (Tag-lite HTRF, Tb-labeled AT2R cells, angiotensin receptor red agonist); format: binding; conditions: 1 h at room temperature
Sequence (P50052 whole entry): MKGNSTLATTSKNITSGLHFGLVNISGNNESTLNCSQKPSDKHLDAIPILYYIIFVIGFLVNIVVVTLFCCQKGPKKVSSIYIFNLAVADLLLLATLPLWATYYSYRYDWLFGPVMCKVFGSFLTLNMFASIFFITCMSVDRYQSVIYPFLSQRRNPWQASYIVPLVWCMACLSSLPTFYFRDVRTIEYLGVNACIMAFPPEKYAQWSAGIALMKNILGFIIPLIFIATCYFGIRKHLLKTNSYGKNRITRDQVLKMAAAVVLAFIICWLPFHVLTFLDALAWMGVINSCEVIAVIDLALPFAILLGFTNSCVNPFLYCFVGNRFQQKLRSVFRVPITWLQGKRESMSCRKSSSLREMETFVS

Point of comparison: `CN(Cc1ccccc1)C(=O)N1CCN(C(=O)C(C)(c2ccccc2)c2ccccc2)[C@H](C(=O)O)C1` [Compound C133, (S)-4-(benzyl(methyl)carbamoyl)-1-(2,2-diphenylpropionyl) piperazine-2-carboxylic acid], IC50 24.3 nM. Against it:
- O=C(O)[C@@H]1CN(C(=O)OCc2ccccc2)CCN1C(=O)C1(c2ccccc2)CCCCC1 [Compound C86, (S)-4-((benzyloxy)carbonyl)-1-(1-phenylcyclohexanecarbonyl) piperazine-2-carboxylic acid] — 21-fold higher, 504 nM
- CCN(Cc1ccc(C)s1)C(=O)N1CCN(C(=O)N(c2ccccc2)c2ccccc2)[C@H](C(=O)O)C1 [Compound C134, (S)-1-(diphenylcarbamoyl)-4-(ethyl((5-methylthiophen-2-yl)methyl)carbamoyl) piperazine-2-carboxylic acid] — within 1.5-fold, 18.5 nM
- O=C1Cc2ccccc2N(C(=O)N2CCN(C(=O)N(c3ccccc3)c3ccccc3)C[C@H]2C(=O)NO)c2ccccc21 [Compound C123] — 21-fold higher, 503 nM
- O=C(O)[C@@H]1CN(C(=O)C(c2ccccc2)c2ccccc2)CCN1C(=O)N1c2ccccc2Sc2ccccc21 [Compound C21, (S)-4-(2,2-diphenylacetyl)-1-(10H-phenothiazine-10-carbonyl)piperazine-2-carboxylic acid] — 7.8-fold higher, 190 nM
- O=C1Cc2ccccc2N(C(=O)N2CCN(C(=O)N(c3ccccc3)c3ccccc3)C[C@H]2c2nn[nH]n2)c2ccccc21 [Compound C104, (S)-4-(10-oxo-10,11-dihydro-5H-dibenzo[b,f]azepine-5-carbonyl)-N, N-diphenyl-3-(1H-tetrazol-5-yl)piperazine-1-carboxamide] — 12-fold higher, 298 nM
- Cc1ccc(CN(C)C(=O)N2CCN(C(=O)N(c3ccccc3)c3ccccc3)[C@H](C(=O)O)C2)s1 [Compound C135, (S)-1-(diphenylcarbamoyl)-4-(methyl((5-methylthiophen-2-yl)methyl)carbamoyl)piperazine-2-carboxylic acid] — within 1.5-fold, 28.2 nM
- CN(C)S(=O)(=O)NC(=O)[C@@H]1CN(C(=O)N(c2ccccc2)c2ccccc2)CCN1C(=O)N1c2ccccc2CC(=O)c2ccccc21 [Compound C103] — 14-fold higher, 334 nM
- CC(C(=O)N1CCN(C(=O)N2c3ccccc3CC(=O)c3ccccc32)[C@H](C(=O)O)C1)(c1ccccc1)c1ccccc1 [Compound C106, (S)-4-(2,2-diphenylpropionyl)-1-(10-oxo-10,11-dihydro-5H-dibenzo [b,f]azepine-5-carbonyl) piperazine-2-carboxylic acid] — 12-fold higher, 282 nM
- O=C(O)[C@@H]1CN(C(=O)N(c2ccccc2)c2ccccc2)CCN1C(=O)C1(O)c2ccccc2-c2ccccc21 [Compound C85, (S)-4-(diphenylcarbamoyl)-1-(9-hydroxy-9H-fluorene-9-carbonyl)piperazine-2-carboxylic acid] — 19-fold higher, 461 nM
- CN(Cc1ccccc1)C(=O)N1CCN(C(=O)N2c3ccccc3C=Cc3ccccc32)[C@H](C(=O)O)C1 [Compound C88, (S)-4-(benzyl(methyl)carbamoyl)-1-(5H-dibenzo[b,f]azepine-5-carbonyl) piperazine-2-carboxylic acid] — 16-fold higher, 387 nM
- CCN(Cc1csc(Cl)c1)C(=O)N1CCN(C(=O)N(c2ccccc2)c2ccccc2)[C@H](C(=O)O)C1 [Compound C150, (S)-4-(((5-chlorothiophene-3-yl)methyl)(ethyl)carbamoyl)-1-(diphenylcarbamoyl) piperazine-2-carboxylic acid] — within 1.5-fold, 26.1 nM
- O=C(O)[C@@H]1CN(C(=O)N2CCC[C@@H]2c2ccccc2)CCN1C(=O)N(c1ccccc1)c1ccccc1 [Compound C128, (S)-1-(diphenylcarbamoyl)-4-((R)-2-phenylpyrrolidine-1-carbonyl) piperazine-2-carboxylic acid] — 2-fold lower, 12.4 nM
- Cc1ccc(CN(C(=O)N2CCN(C(=O)N(c3ccccc3)c3ccccc3)[C@H](C(=O)O)C2)C2CC2)s1 [Compound C145, (S)-4-(cyclopropyl((5-methylthiophen-2-yl)methyl)carbamoyl)-1-(diphenylcarbamoyl) piperazine-2-carboxylic acid] — 6.7-fold lower, 3.61 nM
- COc1cccc(N(C(=O)N2CCN(C(=O)N3c4ccccc4CC(=O)c4ccccc43)[C@H](C(=O)O)C2)c2cccc(OC)c2)c1 [Compound C108, (S)-4-(bis(3-methoxylphenyl)carbamoyl)-1-(10-oxo-10,11-dihydro-5H-dibenzo [b,f]azepine-5-carbonyl)piperazine-2-carboxylic acid] — 2.1-fold higher, 51.1 nM
- CCN(Cc1ccccc1)C(=O)N1CCN(C(=O)N2c3ccccc3CC(=O)c3ccccc32)[C@H](C(=O)O)C1 [Compound C78, (S)-4-(benzyl(ethyl)carbamoyl)-1-(10-oxo-10,11-dihydro-5H-dibenzo [b,f]azepine-5-carbonyl) piperazine-2-carboxylic acid] — 3.6-fold higher, 88.2 nM
- CCN(Cc1csc(C)c1)C(=O)N1CCN(C(=O)N(c2ccccc2)c2ccccc2)[C@H](C(=O)O)C1 [Compound C137, (S)-1-(diphenylcarbamoyl)-4-(ethyl((5-methylthiophen-3-yl)methyl)carbamoyl) piperazine-2-carboxylic acid] — 1.5-fold higher, 36.5 nM
- CS(=O)(=O)NC(=O)[C@@H]1CN(C(=O)N2c3ccccc3CC(=O)c3ccccc32)CCN1C(=O)N(c1ccccc1)c1ccccc1 [Compound C149] — 12-fold higher, 290 nM
- CCN1C(=O)c2ccccc2N(C(=O)N2CCN(C(=O)N(c3ccccc3)c3ccccc3)C[C@H]2C(=O)O)c2ccccc21 [Compound C98, (S)-4-(diphenylcarbamoyl)-1-(10-ethyl-11-oxo-10,11-dihydro-5H-dibenzo[b,e][1,4]diazepine-5-carbonyl) piperazine-2-carboxylic acid] — 3-fold lower, 8.18 nM
- O=C1Cc2ccccc2N(C(=O)N2CCN(C(=O)N(c3ccccc3F)c3ccccc3F)C[C@H]2C(=O)O)c2ccccc21 [Compound C91, (S)-4-(bis(2-fluophenyl)carbamoyl)-1-(10-oxo-10,11-dihydro-5H-dibenzo [b,f]azepine-5-carbonyl)piperazine-2-carboxylic acid] — within 1.5-fold, 30.7 nM
- O=C(O)[C@@H]1CN(C(=O)C2(c3ccccc3)CCCC2)CCN1C(=O)N(c1ccccc1)c1ccccc1 [Compound C83, (S)-1-(diphenylcarbamoyl)-4-(1-phenylcyclopentanecarbonyl) piperazine-2-carboxylic acid] — 3.8-fold lower, 6.35 nM
- COc1ccccc1N(C(=O)N1CCN(C(=O)N2c3ccccc3CC(=O)c3ccccc32)[C@H](C(=O)NS(=O)(=O)N(C)C)C1)c1ccccc1OC [Compound C111, (S)-N^3-(N,N-dimethylsulphamoyl)-N^1,N^1-bis (2-methoxyphenyl)-4-(10-oxo-10,11-dihydro-5H-dibenzo[b,f]azepine-5-carbonyl) piperazine-1,3-dicarboxamide] — 9.4-fold higher, 229 nM
- COc1ccccc1N(C(=O)N1CCN(C(=O)N2c3ccccc3C(=O)N(C)c3ccccc32)[C@H](C(=O)O)C1)c1ccccc1OC [Compound C97, (S)-4-(bis(2-methoxyphenyl)carbamoyl)-1-(10-methyl-11-oxo-10,11-dihydro-5H-dibenzo [b,e][1,4]diazepine-5-carbonyl)piperazine-2-carboxylic acid] — 5.7-fold higher, 138 nM
- CN1C(=O)c2ccccc2N(C(=O)N2CCN(C(=O)N(c3ccccc3)c3ccccc3)C[C@H]2C(=O)O)c2ccccc21 [Compound C96] — 1.9-fold lower, 13.1 nM
- O=C1Cc2ccccc2N(C(=O)N2CCN(C(=O)N(c3ccc(F)cc3)c3ccc(F)cc3)C[C@H]2C(=O)O)c2ccccc21 [Compound C105, (S)-4-(bis(4-fluorinephenyl)carbamoyl)-1-(10-oxo-10,11-dihydro-5H-dibenzo [b,f]azepine-5-carbonyl)piperazine-2-carboxylic acid] — 6.6-fold higher, 161 nM
- O=C(O)[C@@H]1CN(C(=O)N2c3ccccc3CCc3ccccc32)CCN1C(=O)N1c2ccccc2CCc2ccccc21 [Compound C76, (S)-1,4-bis(10,11-dihydro-5H-dibenzo [b,f]azepine-5-carbonyl)piperazine-2-carboxylic acid] — 6.4-fold higher, 156 nM
- Cc1ccccc1N(C(=O)N1CCN(C(=O)N2c3ccccc3C=Cc3ccccc32)[C@H](C(=O)O)C1)c1ccccc1 [Compound C59, (S)-1-(5H-dibenzo[b,f]azepine-5-carbonyl)-4-(phenyl(orthomethylphenyl)carbamoyl) piperazine-2-carb oxylic acid] — 2.8-fold higher, 67.9 nM
- O=C(O)[C@@H]1CN(C(=O)OCc2cccs2)CCN1C(=O)N(c1ccccc1)c1ccccc1 [Compound C140, (S)-1-(diphenylcarbamoyl)-4-((thiophene-2-ylmethoxy)carbonyl) piperazine-2-carboxylic acid] — 14-fold higher, 331 nM
- O=C1Nc2ccccc2N(C(=O)N2CCN(C(=O)N(c3ccccc3)c3ccccc3)C[C@H]2C(=O)O)c2ccccc21 [Compound C53, (S)-4-(diphenylcarbamoyl)-1-(11-oxo-10,11-dihydro-5H-dibenzo[b,e][1,4]diazepine-5-carbonyl)piperazine-2-carboxylic acid] — 55-fold higher, 1340 nM
- O=C(O)[C@@H]1CN(C(=O)N(c2ccccc2)c2ccccc2)CCN1C(=O)N1CCC[C@H]1c1ccccc1 [Compound C129, (S)-4-(diphenylcarbamoyl)-1-((S)-2-phenylpyrrolidinyl-1-carbonyl)piperazine-2-carboxylic acid] — 4.1-fold higher, 98.6 nM
- O=C(N1CCN(C(=O)N2c3ccccc3C=Cc3ccccc32)[C@H](c2nnn[nH]2)C1)N(c1ccccc1)c1ccccc1 [Compound C31, (S)-4-(5H-dibenzo[b,f]azepine-5-carbonyl)-N,N-diphenyl-3-(1H-tetrazol-5-yl)piperazine-1-carboxamide] — 9-fold higher, 219 nM
- Cc1ccc(CN(C(=O)N2CCN(C(=O)C(c3ccccc3)c3ccccc3)[C@H](C(=O)O)C2)C2CC2)s1 [Compound C153, (S)-4-(cyclopropyl((5-methylthiophen-2-yl)methyl)carbamoyl)-1-(2,2-diphenylacetyl)piperazine-2-carboxylic acid] — 4.4-fold lower, 5.47 nM
- CN(Cc1ccccc1)C(=O)N1CCN(C(=O)C2(c3ccccc3)CCCCC2)[C@H](C(=O)O)C1 [Compound C87, (S)-4-(benzyl(methyl)carbamoyl)-1-(1-phenylcyclohexanecarbonyl) piperazine-2-carboxylic acid] — 16-fold higher, 389 nM
